For assay [1], the target named is T1, hH3R (Homo sapiens, UniProt Q9Y5N1).
T1 construct: expressed in transfected cells; host or cells: HEK-293 cells stably expressing hH3R
In words: Radioligand depletion assay with [3H]-N-alpha-methylhistamine on crude hH3R membrane extracts. It counts as binding. The note with it: for Ki: mean of at least three independent experiments, each in triplicates, Cheng-Prusoff; for H3R binding, result in words: radioligand depletion assay against H3R. How it is done:
Radioligand depletion assays were performed as described previously using crude hH3R membrane extracts obtained from HEK-293 cells stably expressing the hH3R [15, 57]. Briefly, crude membrane extracts were incubated with various concentrations of test ligands (between 0.01 nM and 100 μM) and [3H]-N-alpha-methylhistamine. Bound radioligand were harvested through GF/B filters and measured using liquid scintillation counting. Data analysis were performed with GraphPad Prism 6 using non-linear regression. The Ki values for each experiment were obtained according to Cheng-Prusoff and converted to pKi values to allow statistical analysis. Mean values were calculated from at least three independent experiments, each performed in triplicates (Table E in S1 File).

Assay [2] deals with Histamine H3 receptor (H3R). The note with it: Table A in S1 File, cited from earlier work.
Assay [3] concerns the target Histamine H3 receptor (H3R). The following applies: Table A in S1 File, cited from earlier work. The source holds these as a separate data set.

The source of these data is paper PMC6592549, “Ligand-guided homology modeling drives identification of novel histamine H3 receptor ligands” (PLoS ONE, 2019).

Where two headings read alike, the source gives them in different places.

T1 sequence (Q9Y5N1 whole entry): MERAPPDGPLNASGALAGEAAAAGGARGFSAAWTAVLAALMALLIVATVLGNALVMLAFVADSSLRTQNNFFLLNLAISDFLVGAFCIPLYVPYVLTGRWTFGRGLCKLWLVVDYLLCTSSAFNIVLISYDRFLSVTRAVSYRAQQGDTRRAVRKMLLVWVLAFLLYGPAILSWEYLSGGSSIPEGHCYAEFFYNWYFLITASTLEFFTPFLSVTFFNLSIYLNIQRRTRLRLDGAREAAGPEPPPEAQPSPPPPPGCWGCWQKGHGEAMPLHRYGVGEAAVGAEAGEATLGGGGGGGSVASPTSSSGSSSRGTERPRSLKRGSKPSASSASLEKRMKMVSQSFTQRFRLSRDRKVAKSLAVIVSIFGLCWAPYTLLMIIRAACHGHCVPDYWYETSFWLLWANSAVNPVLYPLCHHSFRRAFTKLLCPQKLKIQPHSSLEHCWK

As usually defined, the Ki is the dissociation constant of the complex between target and ligand, obtained from inhibition or displacement. As for `O=C(c1csc(-c2ccccc2)n1)N1CCCN(C2CC2)CC1` [compound 5], in assay [1], the Ki amounted to 148 nM and the “H3R binding, result in words” value was “nanomolar concentration ranges”.
On to `C[C@@H]1CCCN1CCCOc1ccc(-c2cc(-c3ccccc3)c(=O)n(C)c2)cc1` [CHEMBL1923737], for which the Ki in assay [2] (ref 5 (S1 File)) is 3.5 nM.
As for `C[C@@H]1CCCN1CCc1cc2cc(CNc3ccc(Cl)nn3)ccc2o1` [CHEMBL362952], the inhibition constant Ki in assay [2] (ref 10 (S1 File)) was 0.3 nM.
On to `c1nc([C@H]2C[C@@H]2CCNCC2CCCCC2)c[nH]1` [CHEMBL214312], for which the Ki in assay [2] (ref 7 (S1 File)) was 5.3 nM.
Regarding `CCN1CCN(C(=O)c2ccc(-c3nc4ccccc4s3)s2)CC1` [compound 6], in assay [1], the affinity corresponds to a Ki of 38.2 nM and the “H3R binding, result in words” value is “nanomolar concentration ranges”.
The IC50 is the concentration that inhibits the measured activity by half. As to `C[C@@H]1C[C@@](O)(C#Cc2cccc3ccccc23)[C@@H](C)CN1C` [CHEMBL1269844], the IC50 in assay [3] (ref 3 (S1 File)) is 9 nM.
Turning to `c1ccc2c(CCNc3ccc(CN4CCOCC4)cc3)c[nH]c2c1` [CHEMBL2419581], the Ki in assay [2] (ref 4 (S1 File)) is 4.3 nM.
Consider `CCNC(=O)C1CC(F)(c2ccc(CN3CCCC3)c(F)c2)C1` (centres unmarked) [CHEMBL2151197], for which the Ki in assay [2] (ref 9 (S1 File)) was 2.3 nM.
As for `CC(C)N1CCN(C(=O)[C@H]2CC23CCN(C2CCOCC2)CC3)CC1` [CHEMBL3124968], the IC50 in assay [3] (ref 8 (S1 File)) was 8.3 nM.
Turning to `CN(C)CCc1ccc(NC(=O)Nc2ccc(CCN(C)C)cc2)cc1` [CHEMBL2387294], in assay [3] (ref 2 (S1 File)), the IC50 was 6.5 nM.
Regarding `Cc1csc(-c2ccc(C(=O)N3CCN(C)CC3)cc2)n1` [compound 8], the “H3R binding, result in words” value in assay [1] was “inactive”.
With `N#CC(C#N)=C1N(CCCN2CCCCC2)CCN1CCCN1CCCCC1` [CHEMBL257391], the Ki in assay [2] (ref 6 (S1 File)) was 2.4 nM.
